{"source": "patent US4354039A", "about": "“Chlorocitric acids” (Hoffmann-La Roche Inc., priority 1981, dated 1982)", "key": {"[1]": {"experiment": "Comparative anorectic activity, food consumption of meal-fed rats (Example 13)", "assay_type": "in vivo, Charles River female rats", "conditions": "3 hr meal", "method": "Charles River female rats (Charles River Breeding Laboratories, Wilmington, Mass.), weighing 150 to 175 g, were individually housed in wire-bottomed cages in a temperature-regulated (22° C.) light-controlled room (12 hr light, 6 a.m. to 6 p.m. and 12 hr dark, 6 p.m. to 6 a.m.). Animals were fasted 48 hr, then meal-fed the 70% glucose diet described by A. C. Sullivan, et al., J. Nutrition, 101, 265 (1971) from 8 to 11 a.m. Following 5 to 13 days alimentation on the meal-feeding regimen, rats were dosed with the appropriate compounds orally by intubation 1/2 hr before the 3 hr meal. Food cups were weighed immediately after the meal. The control group consists of 31 rats while each drug treated group consists of 5 to 12 rats.\nThe G-70 diet consisted of 70% glucose, 23% vitamin-free casein, 5% Phillips and Hart salt mixture IV, 1% corn oil, 1% complete vitamin mixture, and 40 g/kg cellulose. To ensure complete uniformity, all diets were mixed with a twen-shell dry blender equipped with an itensifier bar (Patterson-Kelley Co., East Stroudsburg, Pa.)."}, "[2]": {"experiment": "Food intake in dogs, pyramiding oral doses (Examples 26 and 27)", "assay_type": "in vivo, beagle dogs", "method": "Twelve beagle dogs of both sexes weighing 7.6-12.2 kg were used for this test. The test compounds were contained in gelatin capsules for oral administration to two dogs of each sex. The animals were weighed and food consumption calculated daily excluding weekends throughout the test period. Each animal received 800 grams of diet daily consisting of 400 grams of Wayne pellet dog food mixed with 400 ml distilled water. The animals received pyramiding oral doses of the test compound over the three week period. On Monday and Tuesday of the first week the animals were weighed and food consumption was recorded (control). […] Doses of 30, 100 and 300 mg/kg were administered on Monday, Wednesday and Friday respectively during the second week. A final dose of 1000 mg/kg was administered on Monday of the third week.\nFood intake was determined by the procedure at pyramiding doses described in EXAMPLE 26."}, "[3]": {"experiment": "Effect of stereoisomers on food consumption of meal-fed rats (Example 14)", "assay_type": "in vivo, Charles River female rats", "method": "Animals were fasted 48 hr, then meal-fed the 70% glucose diet described by A. C. […] Following 5 to 12 days alimentation on the meal-feeding regimen, rats were dosed with the appropriate compounds orally by intubation 1/2 hr before the 3 hr meal. Food cups were weighed immediately after the meal. The control group consisted of 5 to 10 rats, while the experimental group consisted of 4 to 6 rats."}, "[4]": {"experiment": "Anorectic activities of stereoisomers, 3-day food consumption and body weight gain (Example 16)", "assay_type": "in vivo, Charles River female rats", "conditions": "1.32 mmoles/kg oral, 3 days", "method": "Charles River female rats (Charles River Breeding Laboratories, Wilmington, Mass.), weighing 196 to 210 g, were individually housed in wire-bottomed cages in a temperature-regulated (22° C.) light-controlled room (12 hr light, 6 a.m. to 6 p.m. and 12 hr dark, 6 p.m. to 6 a.m.). Animals were fasted 48 hr, then meal-fed a 70% glucose diet from 8 to 11 a.m. Following 5 to 12 days alimentation on the meal-feeding regimen, rats were dosed with the appropriate compounds orally by intubation 1/2 hr before the 3 hr meal for 3 days. The total food consumption and body weight gained during the 3 day period were determined. The control group consisted of 16 rats, while the experimental group consists of 8 rats."}, "[5]": {"experiment": "Effect on stomach emptying, [14C] glucose load (Example 25)", "assay_type": "in vivo, Rats", "conditions": "0.33 mmoles/kg oral, 60 min after [14C] glucose load", "method": "Rats were trained to consume a 3 hr 70% glucose meal from 8 a.m. to 11 a.m. daily. On the experimental day, compounds were administered orally by intubation 30 min before a [^14 C] glucose load was given also by intubation. […] Sixty minutes later the rats were killed by decapitation; blood and stomachs were collected on ice.\nData are expressed as follows: dpm×10^3 per ml of serum and dpm×10^3 per stomach."}, "[6]": {"conditions": "test day 8, dose 100 mg/kg oral"}, "[7]": {"conditions": "test day 10, dose 300 mg/kg oral"}, "[8]": {"conditions": "test day 13, dose 1000 mg/kg oral"}}, "data": [{"smiles": "O=C(O)C[C@@](O)(C(=O)O)[C@@H](Cl)C(=O)O", "note": "(relative stereo) [(±)-threo-Chlorocitric acid]", "values": [{"measurement": "Food Consumption, % of control", "setting": "[1]; 0.08 mmoles/kg oral", "value": "57 % of control"}, {"measurement": "Food Consumption, % of control", "setting": "[1]; 0.17 mmoles/kg oral", "value": "61 % of control"}, {"measurement": "Food Consumption, % of control", "setting": "[1]; 0.33 mmoles/kg oral", "value": "51 % of control"}, {"measurement": "Food Consumption, % of control", "setting": "[1]; 0.66 mmoles/kg oral", "value": "35 % of control"}, {"measurement": "Food Consumption, % of control", "setting": "[1]; 1.32 mmoles/kg oral", "value": "28 % of control"}, {"measurement": "Food Consumption, % of control", "setting": "[1]; 2.63 mmoles/kg oral", "value": "34 % of control"}, {"measurement": "Food Consumption", "setting": "[2]; test day 1, dose 3 mg/kg oral", "value": "616 ± 79", "unit": "g"}, {"measurement": "Food Consumption, % of control", "setting": "[2]; test day 1, dose 3 mg/kg oral", "value": "129 % of control"}, {"measurement": "Food Consumption", "setting": "[2]; test day 2, no dose", "value": "392 ± 140", "unit": "g"}, {"measurement": "Food Consumption, % of control", "setting": "[2]; test day 2, no dose", "value": "82 % of control"}, {"measurement": "Food Consumption", "setting": "[2]; test day 3, dose 10 mg/kg oral", "value": "460 ± 136", "unit": "g"}, {"measurement": "Food Consumption, % of control", "setting": "[2]; test day 3, dose 10 mg/kg oral", "value": "96 % of control"}, {"measurement": "Food Consumption", "setting": "[2]; test day 6, dose 30 mg/kg oral", "value": "511 ± 104", "unit": "g"}, {"measurement": "Food Consumption, % of control", "setting": "[2]; test day 6, dose 30 mg/kg oral", "value": "107 % of control"}, {"measurement": "Food Consumption, % of control", "setting": "[2]; test day 7, no dose", "value": "100 % of control"}, {"measurement": "Food Consumption", "setting": "[2]; [6]", "value": "299 ± 176", "unit": "g"}, {"measurement": "Food Consumption, % of control", "setting": "[2]; [6]", "value": "62 % of control"}, {"measurement": "Food Consumption", "setting": "[2]; test day 9, no dose", "value": "492 ± 110", "unit": "g"}, {"measurement": "Food Consumption, % of control", "setting": "[2]; test day 9, no dose", "value": "103 % of control"}, {"measurement": "Food Consumption", "setting": "[2]; [7]", "value": "316 ± 109", "unit": "g"}, {"measurement": "Food Consumption, % of control", "setting": "[2]; [7]", "value": "66 % of control"}, {"measurement": "Food Consumption", "setting": "[2]; [8]", "value": "164 ± 61", "unit": "g"}, {"measurement": "Food Consumption, % of control", "setting": "[2]; [8]", "value": "34 % of control"}, {"measurement": "Food Consumption", "setting": "[2]; test day 14, no dose", "value": "560 ± 136", "unit": "g"}, {"measurement": "Food Consumption, % of control", "setting": "[2]; test day 14, no dose", "value": "117 % of control"}, {"measurement": "Food Consumption", "setting": "[2]; test day 15, no dose", "value": "543 ± 92", "unit": "g"}, {"measurement": "Food Consumption, % of control", "setting": "[2]; test day 15, no dose", "value": "113 % of control"}, {"measurement": "Food Consumption", "setting": "[2]; test day 16, no dose", "value": "624 ± 88", "unit": "g"}, {"measurement": "Food Consumption, % of control", "setting": "[2]; test day 16, no dose", "value": "130 % of control"}, {"measurement": "Food Consumption", "setting": "[2]; test day 17, no dose", "value": "645 ± 93", "unit": "g"}, {"measurement": "Food Consumption, % of control", "setting": "[2]; test day 17, no dose", "value": "135 % of control"}, {"measurement": "Food Consumption", "setting": "[2]; test day 21, no dose", "value": "561 ± 83", "unit": "g"}, {"measurement": "Food Consumption, % of control", "setting": "[2]; test day 21, no dose", "value": "117 % of control"}, {"measurement": "Food Consumption", "setting": "[2]; test day 22, no dose", "value": "649 ± 91", "unit": "g"}, {"measurement": "Food Consumption, % of control", "setting": "[2]; test day 22, no dose", "value": "135 % of control"}, {"measurement": "Food Consumption", "setting": "[2]; test day 23, no dose", "value": "533 ± 118", "unit": "g"}, {"measurement": "Food Consumption, % of control", "setting": "[2]; test day 23, no dose", "value": "111 % of control"}, {"measurement": "Food Consumption", "setting": "[2]; test day 24, no dose", "value": "477 ± 114", "unit": "g"}, {"measurement": "Food Consumption, % of control", "setting": "[2]; test day 24, no dose", "value": "100 % of control"}, {"measurement": "Food Consumption", "setting": "[2]; test day 27, no dose", "value": "518 ± 139", "unit": "g"}, {"measurement": "Food Consumption, % of control", "setting": "[2]; test day 27, no dose", "value": "108 % of control"}, {"measurement": "Food Consumption", "setting": "[2]; test day 28, no dose", "value": "663 ± 137", "unit": "g"}, {"measurement": "Food Consumption, % of control", "setting": "[2]; test day 28, no dose", "value": "138 % of control"}]}, {"smiles": "O=C(O)C[C@@](O)(C(=O)O)[C@H](Cl)C(=O)O", "note": "[(+)-erythro-Chlorocitric acid]", "values": [{"measurement": "Food Consumption, % of control", "setting": "[3]; 0.66 mmoles/kg oral", "value": "99 % of control"}, {"measurement": "Food Consumption, % of control", "setting": "[3]; 2.63 mmoles/kg oral", "value": "78 % of control"}, {"measurement": "3-Day Body Weight Gain, % of initial body weight", "setting": "[4]", "value": "-0.7 % of initial body weight"}, {"measurement": "3-Day Food Consumption, % of control", "setting": "[4]", "value": "111 % of control"}, {"measurement": "Serum, % of control", "setting": "[5]", "value": "88 % of control"}, {"measurement": "Stomach Contents, % of control", "setting": "[5]", "value": "207 % of control"}]}]}
